Reference: ChEMBL document CHEMBL6134857, “Novel Spiro-Barbiturates Can Reverse the Action of General Anesthetics on the GABAAR” (J Med Chem, 2025)
Calls of active or inactive are those of the source. The calls are words filed in the database; no cut-off is given here.

Columns and labels:
Type in all cases: cell membranes
[1] = molecular target: T1, GABA-A receptor; alpha-1/beta-3/gamma-2 (Homo sapiens) (UniProt P14867+P18507+P28472); assay: Effect on [3H]muscimol binding to full length human N-terminal flag-tagged alpha1-beta3-C-terminal 1D4-tagged gamma2 GABAA receptor extracted from Tetracycline-resistant HEK293 cell membrane assessed as fold change in [3H]muscimol binding at 300 uM incubated for 30 mins; conditions: filed as modulator
[2] = molecular target: T1, GABA-A receptor; alpha-1/beta-3/gamma-2 (Homo sapiens); assay: Inhibition of R-mTFD-MPAB-induced [3H]muscimol binding to full length human N-terminal flag-tagged alpha1-beta3-C-terminal 1D4-tagged gamma2 GABAA receptor extracted from Tetracycline-resistant HEK293 cell membrane assessed as fold change at 300 uM incubated for 30 mins; conditions: filed as modulator
[3] = molecular target: T1, GABA-A receptor; alpha-1/beta-3/gamma-2 (Homo sapiens); assay: Effect on [3H]muscimol binding to full length human N-terminal flag-tagged alpha1-beta3-C-terminal 1D4-tagged gamma2 GABAA receptor extracted from Tetracycline-resistant HEK293 cell membrane assessed as [3H]muscimol binding at 300 uM incubated for 30 mins relative to control
[4] = molecular target: T1, GABA-A receptor; alpha-1/beta-3/gamma-2 (Homo sapiens); assay: Inhibition of R-mTFD-MPAB-induced [3H]muscimol binding to full length human N-terminal flag-tagged alpha1-beta3-C-terminal 1D4-tagged gamma2 GABAA receptor extracted from Tetracycline-resistant HEK293 cell membrane at 300 uM incubated for 30 mins relative to control

Compound | fold change (FC) [1] | fold change (FC) [2] | Activity ([3]; filed as modulator) [%] | inhibition [4] [%] | Activity [3]
CCC1(c2ccccc2)C(=O)NC(=O)NC1=O | 0.43 | 0.88 | 43 | 12 | 
COc1ccc2c(c1)C1(CC2)C(=O)NC(=O)NC1=O | 0 | 0.69 |  | > 40 | < 10%
CN1C(=O)NC(=O)C2(CCCCc3ccccc32)C1=O (stereo in doubt; 3h-1) | 0.32 | 0.93 |  |  | 
N=C1NC(=O)C2(CCc3ccc(F)cc32)C(=O)N1 (stereo not given) | -0.02 | 0.58 |  | > 40 | < 10%
O=C1NC(=O)C2(CCc3ccc(Br)cc32)C(=O)N1 | 0.05 | 0.9 |  | > 40 | < 10%
NC1CC2(C(=O)NC(=O)NC2=O)c2ccccc21 (racemic) | 0.1 | 0.81 |  | 19 | inactive
CN1C(=O)N(C)C(=O)C2(CCc3ccccc32)C1=O | 0.07 | 0.98 |  |  | 
CCCN1C(=O)NC(=O)C2(CCc3ccccc32)C1=O (stereo in doubt; 1j-2) | 0.05 | 0.95 |  |  | 
N=C1NC(=O)C2(CCc3ccc(Br)cc32)C(=O)N1 (stereo not given) | 0.03 | 0.53 |  | > 40 | < 10%
CN1C(=O)NC(=O)C2(CCCc3ccccc32)C1=O (stereo in doubt; 2h-1) | 0.13 | 0.9 |  |  | 
O=C1NC(=O)C2(CC(O)c3ccccc32)C(=O)N1 (stereo in doubt; 1t-2) | 0.02 | 0.55 |  | 45 | inactive
CC1Cc2ccccc2C12C(=O)NC(=O)NC2=O (stereo in doubt; 10g-1) | 0.06 | 0.9 |  |  | 
Cc1ccc2c(c1)C1(CC2)C(=O)NC(=S)NC1=O | 0.02 | 0.94 |  | > 40 | < 10%
CC1CC2(C(=O)NC(=O)NC2=O)c2ccccc21 (stereo in doubt; 11g-2) | 0.15 | 0.99 |  |  | 
NN=C1NC(=O)C2(CCc3ccccc32)C(=O)N1 (stereo not given) | -0.02 | 0.66 |  |  | 
CN1C(=O)NC(=O)C2(CCCCc3ccccc32)C1=O (stereo in doubt; 3h-2) | 0.1 | 0.98 |  |  | 
N#CSC1CC2(C(=O)NC(=O)NC2=O)c2ccccc21 (stereo in doubt; 1y-1) | 0.2 | 0.61 |  |  | 
CCN1C(=O)NC(=O)C2(CCc3ccccc32)C1=O (stereo in doubt; 1i-1) | 0.05 | 0.86 |  |  | 
CCCN1C(=O)NC(=O)C2(CCc3ccccc32)C1=O (stereo in doubt; 1j-1) | 0.31 | 0.95 |  |  | 
CN1C(=O)NC(=O)C2(CCCc3ccccc32)C1=O (stereo in doubt; 2h-2) | -0.01 | 0.8 |  |  | 
O=C1NC(=NO)NC(=O)C12CCc1ccccc12 (stereo not given) | 0.07 | 0.66 |  |  | 
N#CSC1CC2(C(=O)NC(=O)NC2=O)c2ccccc21 (stereo in doubt; 1y-2) | 0.3 | 0.67 |  |  | 
CC1Cc2ccccc2C12C(=O)NC(=O)NC2=O (stereo in doubt; 10g-2) | 0.13 | 0.95 |  |  | 
O=C1NC(=O)C2(CC(O)c3ccccc32)C(=O)N1 (stereo in doubt; 1t-1) | 0 | 0.98 |  |  | 
O=C1NC(=S)NC(=O)C12CCc1ccccc12 | 0.02 | 0.78 |  |  | 
CC1CC2(C(=O)NC(=O)NC2=O)c2ccccc21 (stereo in doubt; 11g-1) | 0.06 | 0.96 |  |  | 
CCN1C(=O)NC(=O)C2(CCc3ccccc32)C1=O (stereo in doubt; 1i-2) | 0.11 | 0.86 |  |  | 
